Results as given in patent US11235020B2, “Methods and compositions for inhibiting glyoxalase 1 (GLO1)” (priority 2013, dated 2022).
Read-outs that look alike come from different tables or passages of the source.

How the values were obtained:
[1] = test system: GABAA receptors in macropatches excised from CGN; assay: Macropatch recording from CGN; format: cell-based, rat
Procedure: Macropatch recording: Macropatch recording was performed with 1.5-2 MΩ electrodes filled with bath solution. The inside of excised patches was perfused with electrode solution containing the indicated reagents. SR was added to the electrode where indicated.

CD-1 mice = assay: Accelerating rotarod; format: in vivo, mouse; conditions: MG 300 mg/kg
Procedure: On day 1, mice were trained on the rotarod for five consecutive trials. […] The latency to fall and the rotarod speed at the time of the fall were recorded.

potassium currents = assay: Potassium currents in CGN; format: cell-based, rat; conditions: 10 μM MG
Excerpt: Potassium currents: Voltage-gated potassium channel currents were evoked using a previously reported protocol with modifications (Plant 2006). The whole voltage-gated potassium current, IK+, and the delayed rectifier current, IDR were isolated with two voltage protocols. First, IK+ was evoked by 250 ms test pulses to between −80 and 90 mV from −80 mV following a 250 ms pre-pulse to −140 mV. Then, the protocol was repeated using a −50 mV pre-pulse to inactivate IK+ and isolate IDR. The inactivating component of the current, IKA, was isolated by subtracting IDR from IK+ recorded in the same cells. The standing outward potassium leak current, IKso, and the inwardly rectifying potassium current, IKIR, were studied as previously reported with modifications (Plant 2002). Cells were held at −20 mV, and the membrane potential was ramped to −120 mV over a period of 100 ms before returning to −20 mV. Ramp hyperpolarizations were repeated every 20 seconds.

[2] = test system: picrotoxin-induced seizures; assay: Picrotoxin-induced seizures assessed by EEG; format: in vivo, mouse; conditions: MG 200 mg/kg pre-treatment, picrotoxin 7 mg/kg
Procedure: FIGS. 37A-37D: Exogenous MG attenuates picrotoxin-induced seizures as assessed by EEG. B6 mice were pre-treated with vehicle or MG (200 mg/kg) prior to seizure induction with picrotoxin (7 mg/kg). […] P=0.036 by Mann-Whitney U test. […] P=0.028 by Mann-Whitney U test. […] P=0.036 by Mann-Whitney U test. […] P=0.014 by Mann-Whitney U test. […] P=0.028 by Mann-Whitney U test. FIG. 37D, Representative EEG recordings of a mouse during baseline period (prior to any injections), after acute saline and picrotoxin (7 mg/kg) injections, or after acute MG (200 mg/kg) and picrotoxin (7 mg/kg) injections. […] Seizures are associated with high muscle activity, as indicated by the electromyography (EMG) trace. […] EEG traces correspond to four differential recordings from each of four subdural electrodes (EEG1 and EEG2 (right cortical hemisphere), EEG3 and EEG4 (left cortical hemisphere)). EMG activity was recorded using two fine wires placed into the neck muscle. Calibration mark: 500 μV/mm and 1 second. Data are mean±SEM. n=4 vehicle, 5 MG (200 mg/kg). *P<0.05 versus vehicle-treated group as determined by Mann-Whitney U tests.
In order to validate these behavioral data, the inventors assessed seizure activity by EEG analysis of mice treated with 7 mg/kg picrotoxin. […] Thus, MG attenuates seizures induced by GABAA receptor blockade at both the behavioral and EEG level.

[3] = HPLC measurement of MG concentration in whole brain after i.p. MG; format: in vivo, mouse; conditions: for concentration at 10 min: intraperitoneal, read-out: Estimated MG concentration; for concentration at 10 min / MG concentration (nmol/g tissue): brain; for MG concentration (nmol/g tissue): 10 min post-injection
Procedure: MG concentration was measured by HPLC as previously described with modifications (Dhar 2009). Tissue was homogenized in 50 mM sodium phosphate buffer (pH 6.6) and 0.8N perchloric acid. It was then incubated on ice for 10 minutes and centrifuged. The supernatant was filtered, and MG was derivatized with 10 mM o-phenylenediamine to form 2-methylquinoxaline (2-MQ). 5-methylquinoxaline (5-MQ, 15 μM) was spiked into each sample as an internal standard. 2-MQ was quantified using an HP 1100 HPLC system (Agilent) with a Nova-Pak C18 column (Waters Corporation). Column effluent was monitored at 315 nm. 2-MQ concentration was determined by comparison to 2-MQ standards of known mass. Quantification of 2-MQ was corrected for losses by comparison with 5-MQ. MG concentration was calculated as 2-MQ/tissue weight. Treatment: Unless otherwise noted, crude MG was used for all behavioral experiments. MG was obtained from Sigma-Aldrich, filter-sterilized (0.22 μm filter, Millipore), diluted in vehicle (0.9% NaCl), and adjusted to pH 7.4. Mice were injected i.p. with 10 ml/kg MG or vehicle. HPLC: Ten minutes post-injection, mice were sacrificed, and brains were rapidly dissected and flash-frozen on dry ice. MG concentration was measured as described above.

## CC(=O)C=O [MG, methylglyoxal]
[1]; 10 μM MG
  latency of inward current after application to the intracellular face: approximately 40 seconds
[1]; 10 μM, SR 10 μM at the extracellular face (pipette)
  current on application to the intracellular face of macropatches: elicited an inward current
CD-1 mice
  speed at fall from accelerating rotarod (ataxia): fell from an accelerating rotarod at slower speeds than vehicle-treated mice
Potassium currents
  effect on potassium currents: did not affect
[2]
  duration of EEG-confirmed seizures: reduced seizure duration
  latency to first EEG-confirmed seizure: delayed seizure onset
  number of EEG-confirmed seizures: reduced the number of seizures
[3]; B6, mouse, MG 50 mg/kg i.p. (anxiolytic dose)
  concentration at 10 min: 5.94 µM
[3]; B6, mouse, MG 100 mg/kg i.p.
  concentration at 10 min: 6.54 µM
[3]; B6, mouse, MG 300 mg/kg i.p.
  concentration at 10 min: 8.26 µM
[3]; MG 50 mg/kg
  expected increase of the concentration of MG in the brain: approximately 16%
[3]; MG 50 mg/kg i.p.
  MG concentration (nmol/g tissue): 5.66 ± 0.36 nmol/g tissue
[3]; MG 100 mg/kg i.p.
  MG concentration (nmol/g tissue): 6.23 ± 0.26 nmol/g tissue
[3]; MG 200 mg/kg
  expected increase of the concentration of MG in the brain: ~43%
[3]; MG 300 mg/kg i.p.
  MG concentration (nmol/g tissue): 7.87 ± 0.56 nmol/g tissue
[3]; mouse, MG 50 mg/kg i.p. (anxiolytic dose)
  concentration at 10 min: ~6 µM
